Measured values: BindingDB's records for patent US12391702 (Bristol-Myers Squibb, 2025)

Molecular target: T1, Interleukin-1 receptor-associated kinase 4 (Homo sapiens, UniProt Q9NWZ3)
T1 sequence (Q9NWZ3 whole entry): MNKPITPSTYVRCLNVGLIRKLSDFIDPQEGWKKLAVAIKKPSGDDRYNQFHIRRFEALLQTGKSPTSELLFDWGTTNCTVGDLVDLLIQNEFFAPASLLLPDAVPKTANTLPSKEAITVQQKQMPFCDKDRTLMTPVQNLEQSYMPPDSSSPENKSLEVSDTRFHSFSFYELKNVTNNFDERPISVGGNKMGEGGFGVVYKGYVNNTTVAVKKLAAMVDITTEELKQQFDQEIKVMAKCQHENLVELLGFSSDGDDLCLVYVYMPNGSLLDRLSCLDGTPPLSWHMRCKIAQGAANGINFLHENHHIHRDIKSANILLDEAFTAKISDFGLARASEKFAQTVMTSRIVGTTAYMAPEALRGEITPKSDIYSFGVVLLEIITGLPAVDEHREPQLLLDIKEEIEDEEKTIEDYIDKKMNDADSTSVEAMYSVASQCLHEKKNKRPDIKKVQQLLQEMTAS
Assay: IRAK4 Inhibition Assay
Protocol: The assays were performed in U-bottom 384-well plates. The final assay volume was 30 μL prepared from 15 μL additions of enzyme and substrates (fluoresceinated peptide and ATP) and test compounds in assay buffer (20 mM HEPES pH 7.2, 10 mM MgCl2, 0.015% Brij 35 and 4 mM DTT). The reaction was initiated by the combination of IRAK4 with substrates and test compounds. The reaction mixture was incubated at room temperature for 60 min. and terminated by adding 45 μL of 35 mM EDTA to each sample. The reaction mixture was analyzed on the Caliper LABCHIP 3000 (Caliper, Hopkinton, MA) by electrophoretic separation of the fluorescent substrate and phosphorylated product. Inhibition data were calculated by comparison to no enzyme control reactions for 100% inhibition and vehicle-only reactions for 0% inhibition. The final concentrations of reagents in the assays are ATP, 500 μM; FL-IPTSPITTTYFFFKKK peptide 1.5 μM; IRAK4, 0.6 nM; and DMSO, 1.6%.

- IC50: 1180 nM
Structure (SMILES): CC(C)Nc1c(C(=O)NC[C@@H](F)C(C)(C)O)cnc2c1Oc1cc(C#N)ccc1O2 [US12391702, Example 1]
